Experimental data: ChEMBL document CHEMBL4507304, “Data for DCP probe TP-021” (2021)

Columns and labels:
[1] = biological target: Dual specificity protein kinase CLK3 (Homo sapiens) (UniProt P49761); details: Compound concentration 1000.0 nM
[2] = biological target: Macrophage colony-stimulating factor 1 receptor (Homo sapiens) (UniProt P07333); details: Compound concentration 1000.0 nM
[3] = biological target: Mitogen-activated protein kinase 15 (Homo sapiens) (UniProt Q8TD08); details: Compound concentration 1000.0 nM
Chain of Mitogen-activated protein kinase 15 (Homo sapiens) (Q8TD08 whole entry): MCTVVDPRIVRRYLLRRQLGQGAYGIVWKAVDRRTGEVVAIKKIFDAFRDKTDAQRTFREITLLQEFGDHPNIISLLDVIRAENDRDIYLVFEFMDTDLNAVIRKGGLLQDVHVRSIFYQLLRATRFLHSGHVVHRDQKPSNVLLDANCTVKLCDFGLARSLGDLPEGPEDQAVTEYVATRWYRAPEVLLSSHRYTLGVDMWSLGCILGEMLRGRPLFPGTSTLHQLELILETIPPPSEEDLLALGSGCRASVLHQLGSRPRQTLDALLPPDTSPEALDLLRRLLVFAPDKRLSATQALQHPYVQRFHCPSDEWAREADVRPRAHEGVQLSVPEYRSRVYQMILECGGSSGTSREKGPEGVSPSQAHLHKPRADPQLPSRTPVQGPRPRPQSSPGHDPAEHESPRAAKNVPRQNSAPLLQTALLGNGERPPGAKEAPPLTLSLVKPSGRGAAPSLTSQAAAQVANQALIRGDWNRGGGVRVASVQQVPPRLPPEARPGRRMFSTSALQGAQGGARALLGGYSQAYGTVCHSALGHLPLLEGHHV

[4] = biological target: Tyrosine-protein kinase JAK2 (Homo sapiens) (UniProt O60674); details: Compound concentration 1000.0 nM
Chain of Tyrosine-protein kinase JAK2 (Homo sapiens) (O60674 whole entry): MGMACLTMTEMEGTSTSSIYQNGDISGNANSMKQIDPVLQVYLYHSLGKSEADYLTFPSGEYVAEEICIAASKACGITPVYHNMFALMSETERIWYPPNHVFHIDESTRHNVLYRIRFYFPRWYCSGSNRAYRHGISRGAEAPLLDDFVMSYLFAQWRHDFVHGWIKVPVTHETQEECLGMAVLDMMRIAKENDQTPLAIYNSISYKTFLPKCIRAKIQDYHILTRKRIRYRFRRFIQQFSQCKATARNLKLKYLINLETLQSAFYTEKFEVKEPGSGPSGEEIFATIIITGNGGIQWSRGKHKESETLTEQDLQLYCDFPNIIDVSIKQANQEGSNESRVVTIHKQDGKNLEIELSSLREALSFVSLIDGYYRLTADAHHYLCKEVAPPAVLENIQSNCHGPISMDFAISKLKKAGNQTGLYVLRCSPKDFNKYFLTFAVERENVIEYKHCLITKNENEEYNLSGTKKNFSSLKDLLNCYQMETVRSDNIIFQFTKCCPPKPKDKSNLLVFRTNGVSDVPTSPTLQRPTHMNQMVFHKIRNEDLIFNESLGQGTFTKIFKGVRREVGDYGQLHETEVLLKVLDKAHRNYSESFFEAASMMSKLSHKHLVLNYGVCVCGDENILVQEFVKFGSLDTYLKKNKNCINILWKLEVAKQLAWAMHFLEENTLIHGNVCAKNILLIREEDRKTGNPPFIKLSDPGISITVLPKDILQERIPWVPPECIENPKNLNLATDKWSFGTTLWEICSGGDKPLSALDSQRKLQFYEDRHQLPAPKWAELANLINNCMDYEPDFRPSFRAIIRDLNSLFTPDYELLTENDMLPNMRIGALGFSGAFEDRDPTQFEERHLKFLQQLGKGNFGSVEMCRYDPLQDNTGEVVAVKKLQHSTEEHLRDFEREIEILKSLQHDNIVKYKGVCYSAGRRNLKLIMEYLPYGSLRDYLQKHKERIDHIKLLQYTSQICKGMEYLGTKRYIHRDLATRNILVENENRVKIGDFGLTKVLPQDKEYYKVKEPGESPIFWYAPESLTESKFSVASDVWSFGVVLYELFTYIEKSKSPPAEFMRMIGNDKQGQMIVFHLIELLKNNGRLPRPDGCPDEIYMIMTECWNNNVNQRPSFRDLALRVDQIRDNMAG

[5] = biological target: Dual specificity mitogen-activated protein kinase kinase 5 (Homo sapiens) (UniProt Q13163); details: Compound concentration 1000.0 nM
[6] = biological target: Serine/threonine-protein kinase MRCK alpha (Homo sapiens) (UniProt Q5VT25); details: Compound concentration 1000.0 nM
Chain of Serine/threonine-protein kinase MRCK alpha (Homo sapiens) (Q5VT25 whole entry): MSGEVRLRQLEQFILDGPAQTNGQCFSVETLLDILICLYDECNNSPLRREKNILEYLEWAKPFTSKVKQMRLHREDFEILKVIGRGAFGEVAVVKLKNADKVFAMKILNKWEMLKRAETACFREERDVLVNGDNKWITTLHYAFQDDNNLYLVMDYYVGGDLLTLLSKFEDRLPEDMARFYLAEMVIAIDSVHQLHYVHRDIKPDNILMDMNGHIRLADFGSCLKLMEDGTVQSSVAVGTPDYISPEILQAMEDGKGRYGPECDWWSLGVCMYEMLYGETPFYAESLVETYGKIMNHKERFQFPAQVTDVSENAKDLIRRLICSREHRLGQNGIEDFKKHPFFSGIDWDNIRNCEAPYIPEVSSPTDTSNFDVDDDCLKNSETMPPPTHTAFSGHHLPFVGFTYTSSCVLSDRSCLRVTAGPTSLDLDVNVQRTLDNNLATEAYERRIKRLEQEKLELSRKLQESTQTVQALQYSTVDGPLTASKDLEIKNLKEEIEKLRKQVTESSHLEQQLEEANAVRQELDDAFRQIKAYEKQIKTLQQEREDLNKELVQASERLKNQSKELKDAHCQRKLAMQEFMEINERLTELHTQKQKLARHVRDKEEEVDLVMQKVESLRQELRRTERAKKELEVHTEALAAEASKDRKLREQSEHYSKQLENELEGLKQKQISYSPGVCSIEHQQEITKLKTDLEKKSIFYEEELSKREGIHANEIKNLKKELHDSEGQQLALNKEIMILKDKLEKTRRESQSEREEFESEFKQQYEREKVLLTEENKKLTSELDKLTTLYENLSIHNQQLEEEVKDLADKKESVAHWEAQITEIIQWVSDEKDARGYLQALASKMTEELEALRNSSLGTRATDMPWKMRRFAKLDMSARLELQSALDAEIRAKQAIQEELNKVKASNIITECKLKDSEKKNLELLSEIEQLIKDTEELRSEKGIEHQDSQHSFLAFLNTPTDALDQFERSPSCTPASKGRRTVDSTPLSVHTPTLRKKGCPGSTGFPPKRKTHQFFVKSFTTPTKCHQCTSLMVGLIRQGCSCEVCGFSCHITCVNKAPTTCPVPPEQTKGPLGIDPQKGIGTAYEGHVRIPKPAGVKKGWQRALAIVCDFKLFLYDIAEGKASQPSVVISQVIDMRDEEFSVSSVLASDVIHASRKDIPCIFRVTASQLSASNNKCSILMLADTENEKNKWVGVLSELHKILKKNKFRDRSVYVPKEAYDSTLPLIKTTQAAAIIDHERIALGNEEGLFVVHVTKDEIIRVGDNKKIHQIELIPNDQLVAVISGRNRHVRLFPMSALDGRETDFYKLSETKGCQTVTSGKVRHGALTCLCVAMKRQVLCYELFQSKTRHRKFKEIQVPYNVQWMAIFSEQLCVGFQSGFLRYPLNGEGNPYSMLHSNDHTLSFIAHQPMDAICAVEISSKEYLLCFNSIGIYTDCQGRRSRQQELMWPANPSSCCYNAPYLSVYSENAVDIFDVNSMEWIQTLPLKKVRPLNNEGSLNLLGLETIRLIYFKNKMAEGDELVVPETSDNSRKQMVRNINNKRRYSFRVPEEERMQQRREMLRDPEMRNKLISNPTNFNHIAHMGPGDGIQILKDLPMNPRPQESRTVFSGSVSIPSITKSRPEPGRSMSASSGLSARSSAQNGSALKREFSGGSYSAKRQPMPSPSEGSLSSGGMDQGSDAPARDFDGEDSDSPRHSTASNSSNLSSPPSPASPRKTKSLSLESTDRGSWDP

[7] = biological target: Myosin light chain kinase 2, skeletal/cardiac muscle (Homo sapiens) (UniProt Q9H1R3); details: Compound concentration 1000.0 nM
[8] = biological target: Serine/threonine-protein kinase 38-like (Homo sapiens) (UniProt Q9Y2H1); details: Compound concentration 1000.0 nM
[9] = biological target: Platelet-derived growth factor receptor beta (Homo sapiens) (UniProt P09619); details: Compound concentration 1000.0 nM
Chain of Platelet-derived growth factor receptor beta (Homo sapiens) (P09619 whole entry): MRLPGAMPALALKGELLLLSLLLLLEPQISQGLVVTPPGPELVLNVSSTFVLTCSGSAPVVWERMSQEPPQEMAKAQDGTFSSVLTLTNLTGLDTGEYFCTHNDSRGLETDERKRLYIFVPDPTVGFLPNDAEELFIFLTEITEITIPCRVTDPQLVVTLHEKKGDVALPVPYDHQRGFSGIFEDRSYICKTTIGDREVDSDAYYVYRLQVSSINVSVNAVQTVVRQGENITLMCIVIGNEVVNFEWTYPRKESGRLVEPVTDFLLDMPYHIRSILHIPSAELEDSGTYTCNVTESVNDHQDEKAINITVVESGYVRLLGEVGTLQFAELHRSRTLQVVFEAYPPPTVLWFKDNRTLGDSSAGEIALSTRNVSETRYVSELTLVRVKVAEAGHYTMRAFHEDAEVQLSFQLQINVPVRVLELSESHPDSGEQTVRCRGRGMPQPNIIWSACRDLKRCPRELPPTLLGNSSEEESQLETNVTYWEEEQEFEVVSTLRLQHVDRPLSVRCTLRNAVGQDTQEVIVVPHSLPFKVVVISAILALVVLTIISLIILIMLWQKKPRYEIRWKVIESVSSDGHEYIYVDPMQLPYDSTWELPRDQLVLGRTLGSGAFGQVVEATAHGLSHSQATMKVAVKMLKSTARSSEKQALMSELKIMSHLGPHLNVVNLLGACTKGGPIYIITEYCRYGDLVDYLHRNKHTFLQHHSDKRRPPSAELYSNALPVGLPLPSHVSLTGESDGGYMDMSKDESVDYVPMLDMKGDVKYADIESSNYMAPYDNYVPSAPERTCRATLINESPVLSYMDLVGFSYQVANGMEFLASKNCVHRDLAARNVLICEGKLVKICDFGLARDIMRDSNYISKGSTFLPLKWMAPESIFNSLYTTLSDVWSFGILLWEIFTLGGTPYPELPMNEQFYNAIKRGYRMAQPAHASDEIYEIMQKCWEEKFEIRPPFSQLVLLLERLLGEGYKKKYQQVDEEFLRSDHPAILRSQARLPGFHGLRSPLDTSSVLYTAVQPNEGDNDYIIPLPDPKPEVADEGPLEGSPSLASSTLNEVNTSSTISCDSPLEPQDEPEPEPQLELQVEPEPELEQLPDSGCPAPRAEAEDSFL

[10] = biological target: Interferon-induced, double-stranded RNA-activated protein kinase (Homo sapiens) (UniProt P19525); details: Compound concentration 1000.0 nM
[11] = biological target: Serine/threonine-protein kinase PRP4 homolog (Homo sapiens) (UniProt Q13523); details: Compound concentration 1000.0 nM
[12] = biological target: 5-hydroxytryptamine receptor 2C (Homo sapiens) (UniProt P28335); details: Compound concentration 10.0 uM
[13] = biological target: Serine/threonine-protein kinase Nek3 (Homo sapiens) (UniProt P51956); details: Compound concentration 1000.0 nM
[14] = biological target: Phosphatidylinositol 4,5-bisphosphate 3-kinase catalytic subunit delta isoform (Homo sapiens) (UniProt O00329); details: Compound concentration 1000.0 nM
[15] = biological target: D(2) dopamine receptor (Homo sapiens) (UniProt P14416); details: Compound concentration 10.0 uM
[16] = biological target: D(1B) dopamine receptor (Homo sapiens) (UniProt P21918); details: Compound concentration 10.0 uM
[17] = biological target: Alpha-1A adrenergic receptor (Homo sapiens) (UniProt P35348); details: Compound concentration 10.0 uM
[18] = biological target: Beta-3 adrenergic receptor (Homo sapiens) (UniProt P13945); details: Compound concentration 10.0 uM

Chain of Dual specificity protein kinase CLK3 (Homo sapiens) (P49761 whole entry, looked up): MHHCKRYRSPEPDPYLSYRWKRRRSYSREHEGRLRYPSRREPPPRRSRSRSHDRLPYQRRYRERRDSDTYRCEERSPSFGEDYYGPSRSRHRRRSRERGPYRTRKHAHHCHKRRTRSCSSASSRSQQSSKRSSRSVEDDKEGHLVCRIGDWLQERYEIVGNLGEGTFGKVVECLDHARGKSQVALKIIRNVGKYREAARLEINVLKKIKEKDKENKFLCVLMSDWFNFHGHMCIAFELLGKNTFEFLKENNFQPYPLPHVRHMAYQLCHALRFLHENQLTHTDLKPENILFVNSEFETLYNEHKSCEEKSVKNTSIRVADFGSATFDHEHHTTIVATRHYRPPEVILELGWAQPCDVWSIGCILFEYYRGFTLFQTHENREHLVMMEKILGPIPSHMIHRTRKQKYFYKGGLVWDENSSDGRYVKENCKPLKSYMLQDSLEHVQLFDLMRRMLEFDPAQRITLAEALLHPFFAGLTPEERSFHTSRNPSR

N#Cc1ccc(Nc2ccc3[nH]c(=O)[nH]c3c2)c(Cl)c1
inactive: residual activity [1] 96% | residual activity [2] 100% | residual activity [3] 100% | residual activity [4] 100% | residual activity [5] 100% | residual activity [6] 100% | residual activity [7] 99% | residual activity [8] 53% | residual activity [9] 100% | residual activity [10] 57% | residual activity [11] 99% | inhibition [12] -9.96%

O=C1CCc2cc(Nc3cc(OC4CCOCC4)c([N+](=O)[O-])cc3Cl)ccc2N1
inactive: residual activity [1] 100% | residual activity [2] 95% | residual activity [3] 96% | residual activity [4] 100% | residual activity [5] 100% | residual activity [6] 91% | residual activity [7] 90% | residual activity [13] 100% | residual activity [9] 97% | residual activity [14] 94% | residual activity [11] 100% | inhibition [15] 2.86% | inhibition [16] 13% | inhibition [17] -8.76% | inhibition [18] 7.73%
